Article PMC10023787, “Trio-pharmacophore DNA-encoded chemical library for simultaneous selection of fragments and linkers” (Nature Communications, 2023)
“Also recorded” adds a separate entry of the source. Read-outs that look alike come from different tables or passages of the source. One block for each molecule: values may come before it.

Tests used:
MMP-9 = biological target: T1, MMP-9 (Homo sapiens, UniProt P14780); experiment: MMP-9 inhibition assay (fluorogenic peptide substrate); type: biochemical
T1 construct: purchased Sino Biological 10327-HNAH
T1 sequence (P14780 107-707 limits assumed): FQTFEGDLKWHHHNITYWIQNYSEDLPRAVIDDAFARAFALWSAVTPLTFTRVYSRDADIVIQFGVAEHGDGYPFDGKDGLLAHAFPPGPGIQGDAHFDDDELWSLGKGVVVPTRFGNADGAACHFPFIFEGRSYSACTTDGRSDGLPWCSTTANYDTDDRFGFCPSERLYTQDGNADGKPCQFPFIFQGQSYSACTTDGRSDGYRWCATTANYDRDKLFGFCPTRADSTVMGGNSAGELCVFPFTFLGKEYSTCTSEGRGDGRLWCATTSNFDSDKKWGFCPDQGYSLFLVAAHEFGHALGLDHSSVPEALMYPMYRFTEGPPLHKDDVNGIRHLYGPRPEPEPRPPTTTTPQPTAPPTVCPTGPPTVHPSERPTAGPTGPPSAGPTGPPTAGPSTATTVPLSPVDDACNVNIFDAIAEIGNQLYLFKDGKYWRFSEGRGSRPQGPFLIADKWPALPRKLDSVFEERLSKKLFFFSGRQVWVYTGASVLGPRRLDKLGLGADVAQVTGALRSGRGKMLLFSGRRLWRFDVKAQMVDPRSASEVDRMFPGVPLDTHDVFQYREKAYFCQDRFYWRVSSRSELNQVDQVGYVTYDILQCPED
How it was run: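 Hydrolysis of DNP-Pro-Leu-Gly-Met-Trp-Ser-Arg (25 μM final) was tracked kinetically at em 360 nm over 30 min. Enzymes, APMA-activated and at 10 nM (MMP-9) or 6.5 nM (MMP-2) final, sat 30 min at RT with inhibitor in pH 7.5 Tris buffer with CaCl2 and Brij 35 first. Logistic fitting of Vmax against concentration gave IC50, in triplicate.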

MMP-2 = biological target: T2, MMP-2 (Homo sapiens, UniProt P08253); experiment: Dynamic dual-pharmacophore DEL selection against MMP-2, NGS decoding; type: binding; details: MMP2 selection
T2 construct: purchased Sino Biological 10082-HNAH
T2 sequence (P08253 110-660): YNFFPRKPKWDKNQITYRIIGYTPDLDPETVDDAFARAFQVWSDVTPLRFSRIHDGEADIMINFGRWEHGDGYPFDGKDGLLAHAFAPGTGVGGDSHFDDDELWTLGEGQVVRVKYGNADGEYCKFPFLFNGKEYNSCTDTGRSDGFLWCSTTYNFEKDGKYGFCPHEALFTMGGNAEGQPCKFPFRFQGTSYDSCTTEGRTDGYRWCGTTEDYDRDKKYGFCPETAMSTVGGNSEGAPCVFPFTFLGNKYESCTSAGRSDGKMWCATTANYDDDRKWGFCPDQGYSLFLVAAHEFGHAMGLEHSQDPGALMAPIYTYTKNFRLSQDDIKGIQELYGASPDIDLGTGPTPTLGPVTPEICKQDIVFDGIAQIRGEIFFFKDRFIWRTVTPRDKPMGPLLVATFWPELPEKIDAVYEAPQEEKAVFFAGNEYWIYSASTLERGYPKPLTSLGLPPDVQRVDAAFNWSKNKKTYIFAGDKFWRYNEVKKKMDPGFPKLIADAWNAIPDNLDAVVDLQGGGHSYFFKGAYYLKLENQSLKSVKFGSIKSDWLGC
Text: Matrix metalloproteinases (MMPs) are zinc-dependent endopeptidases capable of degrading and remodeling extracellular matrix components[46],[47]. They are attractive therapeutic targets as high expression levels were detected in various diseases, such as inflammatory diseases, and at different stages of cancers, including metastasis, invasion, and angiogenesis[47]–[53]. As shown in Supplementary Fig. 3c, we performed selections against the two gelatinases (human MMP-2 and human MMP-9) to identify binding fragments for later design and synthesis of small molecule inhibitors. After selection, the three sub-libraries were decoded, and the enrichment was calculated by dividing the post-selection fraction (count/total counts) by the pre-selection fraction (Fig. 4a and Supplementary Fig. 13).
4 µg of MMP-2/MMP-9 was dissolved in 100 µl of selection buffer containing 25 mM Tris-base, 10 mM CaCl2, 150 mM NaCl, 0.05% Tween 20, pH 7.5. 10 µl of 4-Aminophenylmercuric acetate (APMA) (100 mM) solution was added to the protein solution and incubated at 37 °C for 1 h. After activation, the solution was added on top of 40 µl pre-washed Ni-NTA resin and incubated for 30 min on a rotary shaker. The supernatant was discarded, and the resin was washed three times with the selection buffer.
For each independent selection, three sub-libraries were mixed in the selection buffer with a final concentration of 40 nM of each sub-library in 100 µl. The mixture was heat denatured at 90 °C for 1 min and slowly cooled down to allow the formation of the trio-pharmacophore library. The dynamic dual-pharmacophore DEL was provided by DyNAbind GmbH (Merck, DYNA001).
The assembled library was incubated with the protein-bound solid support for 2 h at RT on a rotary shaker. In parallel, selection on bare solid support served as the negative control to exclude promiscuous binders on the resin. After panning, the supernatant was discarded, and the resin was washed three times with 1 ml selection buffer. Finally, 100 µl of 50 mM Tris buffer, pH 7.4 was added to resuspend the resin and the resin was incubated at 95 °C for 5 min to denature the protein, release, and collect the bound library members.
The eluted library members were subjected to sample preparation for NGS. NGS preparation was achieved by two-step PCR. First, the individual selection was indexed using primers containing unique sequences corresponding to each selection. The amplified product was purified from 2% agarose gel. Second, the purified DNA from all selections were pooled in equal amount and subjected to the 2nd PCR step to attach sequences compatible with the NGS flow cell and the sequencing primers. NGS was performed by Novogene UK with Novaseq 6000. Raw data files (fastq files) obtained were decoded using a custom python script and excel. The sequence reads corresponding to each sample was retrieved by searching for the correct index unique to each selection. Then, the code region was extracted from each sequence and assigned to the corresponding identity. The count of each code in each selection sample was obtained by looping through the total reads and counting the occurrence of each code. The enrichment fold of each compound was calculated by first, dividing the count by the total count to get the abundance, second, the abundance after the selection was divided by the abundance of pre-selection to reflect the distribution change of the compound. Next, the enrichment fold was plotted against the count for each member of the library to give the scatter plots as in Fig. 4.

remaining activity at 0.078016 µM (MMP-9; Figure 5b, fragment concentration 0.078016 µM, read-out: Normalized activity (Mean)): 96.6% | remaining activity at 0.39008 µM (MMP-9; Figure 5b, fragment concentration 0.39008 µM, read-out: Normalized activity (Mean)): 92.7% | remaining activity at 1.9504 µM (MMP-9; Figure 5b, fragment concentration 1.9504 µM, read-out: Normalized activity (Mean)): 92.2% | remaining activity at 9.752 µM (MMP-9; Figure 5b, fragment concentration 9.752 µM, read-out: Normalized activity (Mean)): 92.5% | remaining activity at 48.76 µM (MMP-9; Figure 5b, fragment concentration 48.76 µM, read-out: Normalized activity (Mean)): 86.3% | remaining activity at 243.8 µM (MMP-9; Figure 5b, fragment concentration 243.8 µM, read-out: Normalized activity (Mean)): 85% | remaining activity at 1219 µM (MMP-9; Figure 5b, fragment concentration 1219 µM, read-out: Normalized activity (Mean)): 74.6% | remaining activity at 0.08 µM (MMP-9; MMP-9, concentration 0.08 µM, read-out: Mean (dose-response, Supplementary fig 17)): 96.6% | remaining activity at 0.39 µM (MMP-9; MMP-9, concentration 0.39 µM, read-out: Mean (dose-response, Supplementary fig 17)): 92.7% | remaining activity at 1.95 µM (MMP-9; MMP-9, concentration 1.95 µM, read-out: Mean (dose-response, Supplementary fig 17)): 92.2% | remaining activity at 9.75 µM (MMP-9; MMP-9, concentration 9.75 µM, read-out: Mean (dose-response, Supplementary fig 17)): 92.5% | remaining activity at 48.76 µM (MMP-9; MMP-9, concentration 48.76 µM, read-out: Mean (dose-response, Supplementary fig 17)): 86.3% | remaining activity at 243.8 µM (MMP-9; MMP-9, concentration 243.80 µM, read-out: Mean (dose-response, Supplementary fig 17)): 85% | remaining activity at 1219 µM (MMP-9; MMP-9, concentration 1219.00 µM, read-out: Mean (dose-response, Supplementary fig 17)): 74.6% | Enrichment Fold (MMP-2; 3L sub-library): 1.69 | Count (MMP-2; 3L sub-library, NGS sequence count): 477 | Enrichment Fold (MMP-2; 5L sub-library): 1.932 | Count (MMP-2; 5L sub-library, NGS sequence count): 4327
Compound: O=C(O)CNC(=O)NC12CC3CC(CC(C3)C1)C2 [Compound 66]
inhibitory effect (MMP-9; in words): No inhibitory effects could be measured; also recorded: did not exhibit meaningful activity

remaining activity at 0.062464 µM (MMP-9; Figure 5b, fragment concentration 0.062464 µM, read-out: Normalized activity (Mean)): 93.2% | remaining activity at 0.31232 µM (MMP-9; Figure 5b, fragment concentration 0.31232 µM, read-out: Normalized activity (Mean)): 98.5% | remaining activity at 1.5616 µM (MMP-9; Figure 5b, fragment concentration 1.5616 µM, read-out: Normalized activity (Mean)): 93.8% | remaining activity at 7.808 µM (MMP-9; Figure 5b, fragment concentration 7.808 µM, read-out: Normalized activity (Mean)): 101% | remaining activity at 39.04 µM (MMP-9; Figure 5b, fragment concentration 39.04 µM, read-out: Normalized activity (Mean)): 52.9% | remaining activity at 195.2 µM (MMP-9; Figure 5b, fragment concentration 195.2 µM, read-out: Normalized activity (Mean)): 20% | remaining activity at 976 µM (MMP-9; Figure 5b, fragment concentration 976 µM, read-out: Normalized activity (Mean)): 0% | remaining activity at 0.06 µM (MMP-9; MMP-9, concentration 0.06 µM, read-out: Mean (MMP-9, Supplementary fig 16)): 93.2% | remaining activity at 0.31 µM (MMP-9; MMP-9, concentration 0.31 µM, read-out: Mean (MMP-9, Supplementary fig 16)): 98.5% | remaining activity at 1.56 µM (MMP-9; MMP-9, concentration 1.56 µM, read-out: Mean (MMP-9, Supplementary fig 16)): 93.8% | remaining activity at 7.81 µM (MMP-9; MMP-9, concentration 7.81 µM, read-out: Mean (MMP-9, Supplementary fig 16)): 101% | remaining activity at 39.04 µM (MMP-9; MMP-9, concentration 39.04 µM, read-out: Mean (MMP-9, Supplementary fig 16)): 52.9% | remaining activity at 195.2 µM (MMP-9; MMP-9, concentration 195.20 µM, read-out: Mean (MMP-9, Supplementary fig 16)): 21% | remaining activity at 976 µM (MMP-9; MMP-9, concentration 976.00 µM, read-out: Mean (MMP-9, Supplementary fig 16)): 0% | IC50 (MMP-9; mean ± SE, n.d: not detected, Fig. 5e prints no unit, µM, read-out: IC50): 48.1 µM | Enrichment Fold (MMP-2; 3L sub-library): 1.088 | Count (MMP-2; 3L sub-library, sequence count per compound ID): 1179 | Enrichment Fold (MMP-2; 5L sub-library): 1.688 | Count (MMP-2; 5L sub-library, sequence count per compound ID): 5803
Compound: O=C(O)Cn1cnc2c(oc3ccccc32)c1=O [Compound 182]
